Results from article PMC8709454, “Enhanced Skin Delivery of Therapeutic Peptides Using Spicule-Based Topical Delivery Systems” (Pharmaceutics, 2021).

Tested on: imiquimod-induced psoriatic mice
Conditions: subcutaneous injection of CysA (3 mg/mL, 100 μL, 7 times, day 1 to day 7); psoriasis mice; HPLC; mean ± SD
Description: BALB/c mice were used to develop the psoriatic model. […] The back hair of the mice was shaved.
Briefly, blood (500 μL) was collected from the mice orbit and mixed with 4 mL ether. […] Mice skin, liver, and kidney samples were collected and weighed. […] In addition, the mice skin in the treatment area and the non-treated area was cryo-sectioned and stained with hematoxylin and eosin. The epidermal thickness of each skin sample was measured at three random sites with ImageJ software (V1.8.0).

For cyclosporine A [CysA], the “drug accumulation in mice kidney” value was 64.07 ± 10.25 (μg/g)/mg.
